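These data come from cells grown in 96-well plates and exposed to compound for 48 hours at five concentrations. TGI: concentration producing complete growth inhibition.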

This note sets out measurements from PubChem BioAssay (NCI).

Assay in all cases: inhibition of tumour cell growth, NCI panel, 48 h
Test [1] concerns BT-549 breast.
Test [2] deals with HCT-116 colon.
Test [3] deals with HOP-62 NSCLC.
Test [4] has as its system HS 578T breast.
Test [5] relates to MDA-MB-231 breast.
Test [6] has as its system NCI-H23 lung.
The subject of test [7] is NCI-H460 lung.
In test [8] the test system is SF-539 CNS.
Test [9] has as its system SK-OV-3 ovarian.
Test [10] relates to SNB-75 CNS.

As to `Nc1onc2c1Cc1c(noc1N)-c1ccccc1-2`, the TGI in test [1] is 50.4 µM; in [2], greater than 100 µM; in test [3], greater than 100 µM; in [4] it was 83.8 µM; in test [5], greater than 100 µM; in test [6] it was greater than 100 µM. Moreover, the TGI in [7] is greater than 100 µM; in [8], greater than 100 µM; in test [9] it was greater than 100 µM; in test [10], 95.1 µM.

In the case of `CCOC(=O)c1c(N2CCOCC2)[nH]c(=O)c(C(c2ccco2)c2c(O)c(C(=O)OCC)c(N3CCOCC3)[nH]c2=O)c1O`, the TGI in [1], in test [2], in test [3], in test [4], in test [5] and in test [6] was greater than 100 µM throughout. The TGI in test [7], in test [8], in test [9] and in [10] was greater than 100 µM each time.

For `CCOC(=O)NC(Nc1ccc(C(=O)OCC)cc1)(C(F)(F)F)C(F)(F)F`, the TGI in test [1], in test [2], in test [3], in [4], in test [5] and in test [6] was greater than 100 µM each time. Besides, the TGI in [7], in test [8], in [9] and in test [10] was greater than 100 µM each time.

Regarding `N[C@H]1CCCC[C@@H]1N1C(=O)c2ccccc2C1(O)c1ccc(Cl)cc1` (some centres not stated), the TGI was found to be 28.8 µM in test [1]; 21.9 µM in test [2]; 29.6 µM in [3]; 54.4 µM in [4]; 27.5 µM in test [5]; 28.6 µM in test [6]. The TGI in test [7] came to 25.2 µM; in test [8], 25 µM; in test [9], 29.8 µM; in test [10], 7.98 µM.

As for `Cn1c(-c2cccc([N+](=O)[O-])c2)[n+](C)c2ccccc21`, the TGI in test [1], in test [2], in test [3], in test [4], in test [5] and in test [6] was greater than 100 µM in each case. For the same compound, the TGI in test [7], in [8], in test [9] and in [10] was greater than 100 µM in each case.

Turning to `O=C(O)CN1C(=O)C(Cc2ccc(O)cc2)N=C(c2cccc(O)c2)c2ccccc21` (configuration not stated), the TGI in [1], in test [2], in test [3], in test [4], in test [5] and in test [7] was greater than 100 µM each time. The TGI in test [8], in [9] and in test [10] was greater than 100 µM in each case.

Regarding `Cc1ccc(S(=O)(=O)NNCNC(=O)c2ccccc2)cc1`, the TGI in test [1], in test [2], in test [3], in test [4], in test [5] and in [6] was greater than 100 µM throughout. For the same compound, the TGI in [8], in test [9] and in test [10] was greater than 100 µM throughout.

As to `Oc1ccc2c(c1)-c1c(c3ccccc3n1CCN1CCOCC1)CC2`, the TGI was greater than 100 µM in [1]; greater than 100 µM in test [2]; greater than 100 µM in [3]; greater than 100 µM in [4]; greater than 100 µM in test [5]; 69.1 µM in test [6]. Moreover, the TGI in [7] is greater than 100 µM; in [8], greater than 100 µM; in [9], 85.2 µM; in [10], 68.5 µM.

Turning to `C=CCc1cccc2cc(C(=O)Nc3ccccn3)c(=N)oc12`, the TGI in [1], in [2], in test [3], in test [4], in test [5] and in test [6] was greater than 100 µM throughout. Moreover, the TGI in [7], in test [8], in test [9] and in test [10] was greater than 100 µM in each case.

As for `CCCCCCCCCCCCCCCCCCN(C)CC(COP(=O)([O-])OCC[N+](C)(C)C)OC` (configuration not stated), the TGI is greater than 100 µM in [1]; 43.3 µM in [2]; 28.4 µM in [3]; greater than 85.8 µM in test [4]; greater than 100 µM in test [5]; 49.3 µM in [6]. The TGI worked out at 12.2 µM in test [7], 40.3 µM in test [8], 27.4 µM in test [9] and 15.6 µM in [10].

Turning to `N#Cc1ccc(-n2c3ccccc3c3ccc4c(c32)C(=O)C=CC4=O)cc1`, the TGI in test [1] came to 25.3 µM; in [2], 7.19 µM; in test [3] it was 30.8 µM; in test [4] it was 39.3 µM; in test [5], 8.25 µM; in [6], 24.4 µM. Further, the TGI is 44.2 µM in test [7], 18.5 µM in test [8], 27.3 µM in [9] and greater than 53.3 µM in [10].

`Cc1ccccc1S(=O)(=O)Nn1cnc2ccc(S(=O)(=O)Nc3ccc(Cl)cc3)cc2c1=O`: the TGI in [1], in test [2], in test [3], in test [4], in test [5] and in test [6] was greater than 100 µM in each case. The TGI in test [7], in test [8], in test [9] and in [10] was greater than 100 µM in each case.

On to `Cc1ccnc(NC(NC(=O)c2ccccc2)(C(F)(F)F)C(F)(F)F)c1`, for which the TGI in test [1], in [2], in test [3], in test [4], in [5] and in test [6] was greater than 100 µM each time. For the same compound, the TGI in test [8], in [9] and in [10] was greater than 100 µM each time.
